Laboratory results from patent US20120295923A1, “Aminocyclohexanes and Aminotetrahydropyrans and Related Compounds As Gamma-Secretase Modulators” (PFIZER INC., priority 2010, published 2012).
Where a name gives a salt, the structure may show the parent alone. Read-outs that look alike come from different tables or passages of the source.

System: γ-secretase; production of amyloid beta protein Aβ(1-42)
Experiment: Cell-Based γ-Secretase Assay with ELISA Readout
Settings: human WT-APP overexpressing CHO cells
Experimental: The ability of compounds to modulate production of amyloid beta protein A6(1-42) was determined using human WT-APP overexpressing CHO cells. Cells were plated at 22,000 cells/100 μL well in 96 well tissue culture treated, clear plates (Falcon) in DMEM/F12 based medium and incubated for 24 hours at 37° C. Compounds for testing were diluted in 100% DMSO to achieve an eleven points, half log, dose response for IC50 determinations. Compounds were added in fresh medium to achieve 1% final DMSO. Appropriate vehicle and inhibitor controls were added to obtain maximum and minimum inhibition values for the assay before the plates were incubated for about 24 hours at 37° C.
Coating of ELISA assay plates was initiated by addition of 50 μL/well of an in-house Aβ(1-42) specific antibody at (4 μg/mL) in 0.1 M NaHCO3 (pH 9.0) into black 384-well Maxisorp® plates (Nunc) and incubated overnight at 4° C. The capture antibody was then aspirated from the ELISA assay plates and 100 μL/well of Blocking Buffer (Dulbecco's PBS, 1.5% BSA (Sigma A7030)) added. Ambient temperature incubation was allowed to proceed for a minimum of two hours before washing 2×100 μL with Wash Buffer (Dulbecco's PBS, 0.05% Tween 20). Assay Buffer (Dulbecco's PBS, 1.0% BSA (Sigma A7030), 0.05% Tween 20) 20 μL/well was then added.
After incubation overnight at 37° C., 5% CO2, 40 μL (in duplicate) of experimental conditioned media were transferred into wells of the blocked ELISA plates containing the capture antibody, followed by overnight incubation at 4° C.
After overnight incubation of the ELISA assay plates at 4° C., unbound Aβ peptides were removed thorough (4×100 μL) washes with Wash Buffer. Europium (Eu) labeled (custom labeled, Perkin Elmer) Aβ(1-16) 6e10 Monoclonal Antibody (Covance #SIG-39320 was added, (50 μL/well Eu-6e10 @ 1:5000, 20 uM EDTA) in Assay Buffer. Incubation at ambient temperature for a minimum of 2 hours was followed by (4×100 μL) washes with Wash Buffer, before 50 μL/well of Delfia Enhancement Solution (PerkinElmer) was added. Following a one hour ambient temperature incubation, the plates were read on an EnVision plate reader (PerkinElmer) using standard DELFIA TRF settings. Data analysis including inhibitory IC50 determination was performed using nonlinear regression fit analysis (in-house software) and the appropriate plate mean values for the maximum and minimum inhibition controls.

[1] = geometric mean of 2-4 determinations unless otherwise indicated (footnote 10: 6-8; footnote 14: single determination), read-out: Aβ 42B IC50
[2] = footnote 8: single determination, read-out: Aβ 42B IC50 (nM) (Geometric Mean of 2-8 Determinations)
[3] = geometric mean of 2 determinations unless otherwise indicated (footnote 2: 6-14 determinations), read-out: Aβ 42B IC50

Structure (SMILES) | IC50 [1] [nM] | other results
CC(C)CN(CC1=CCC2CC1C2(C)C)[C@@H]1CC[C@@H](CC(=O)O)C[C@H]1c1ccc(C(F)(F)F)cc1 (stereo partly drawn) [Example 63, {(1R,3S,4R)-4-{[(6,6-dimethylbicyclo[3.1.1]hept-2-en-2-yl)methyl](isobutyl)amino}-3-[4-(trifluoromethyl)phenyl]cyclohexyl}acetic acid, trifluoroacetate salt] | 336 | 
CC1(CN(CC2CCCC2)[C@@H]2CC[C@@H](CC(=O)O)C[C@H]2c2ccc(C(F)(F)F)cc2)CCCC1 [Example 21, {(1R,3S,4R)-4-{(cyclopentyl-methyl)[(1-methylcyclo-pentyl)methyl]amino}-3-[4-(trifluoromethyl)phenyl]cyclohexyl} acetic acid] |  | IC50 [2]: 435 nM
CC(C)CCN(C1CCOCC1)[C@@H]1CC[C@@H](CC(=O)O)C[C@H]1c1ccc(C(F)(F)F)cc1 [Example 30, {(1R,3S,4R)-4-[(3-methylbutyl)(tetrahydro-2H-pyran-4-yl)amino]-3-[4-(trifluoromethyl)phenyl]cyclohexyl}acetic acid, ammonium salt] | 7310 | 
O=C(O)C[C@@H]1CC[C@@H](N(CC2CCCC2)CC2CCCC2)[C@H](c2ccc(C(F)(F)F)cc2)O1 [Example 3, {(2S,5R,6S)-5-[bis(cyclopentylmethyl)amino]-6-[4-(trifluoromethyl)phenyl]tetrahydro-2H-pyran-2-yl}acetic acid] |  | IC50 [3]: 357 nM
O=C(O)C[C@@H]1CC[C@@H](N(Cc2cscn2)CC2CCCC2)[C@H](c2ccc(C(F)(F)F)cc2)C1 [Example 42, {(1R,3S,4R)-4-[(cyclopentylmethyl)(1,3-thiazol-4-ylmethyl)amino]-3-[4-(trifluoromethyl)phenyl]cyclohexyl}acetic acid, trifluoroacetate salt] | 1970 | 
O=C(O)C[C@@H]1CC[C@@H](N(Cc2ccc(F)cc2)CC2CCCC2)[C@H](c2ccc(C(F)(F)F)cc2)C1 [Example 26, {(1R,3S,4R)-4-[(cyclopentyl-methyl)(4-fluorobenzyl)amino]-3-[4-(trifluoromethyl)phenyl]cyclohexyl} acetic acid] |  | IC50 [2]: 190 nM
O=C(O)C[C@@H]1CC[C@@H](N(CC2CCCC2)CC2CCCC2)[C@H](c2ccc(Cl)c(F)c2)O1 [Example 54, [(2S,5R,6S)-5-[bis(cyclopentylmethyl)amino]-6-(4-chloro-3-fluorophenyl)tetrahydro-2H-pyran-2-yl]acetic acid, ammonium acid] | 1050 | 
O=C(O)C[C@@H]1CC[C@@H](N(CC2CCCC2)CC2CCCC2)[C@H](c2cccc(C(F)(F)F)c2)O1 [Example 20, {(2S,5R,6S)-5-[bis(cyclopentyl-methyl)amino]-6-[3-(trifluoromethyl)phenyl]tetrahydro-2H-pyran-2-yl} acetic acid] |  | IC50 [2]: 959 nM
O=C(O)C[C@@H]1CC[C@@H](N(CC2CCCC2)CC2CCCC2)[C@H](c2ccc(F)cc2)C1 [Example 18, [(1R,3S,4R)-4-[bis(cyclopentyl-methyl)amino]-3-(4-fluorophenyl)cyclohexyl]acetic acid] |  | IC50 [2]: 2630 nM
O=C(O)C[C@@H]1CC[C@@H](N(CC2CCCC2)CC2CCCC2)[C@H](c2ccc(Cl)cc2)C1 [Example 6, [(1R,3S,4R)-4-[bis(cyclopentylmethyl)amino]-3-(4-chlorophenyl)cyclohexyl]acetic acid] |  | IC50 [3]: 719 nM
CC(C)CN(CC1CCCC1)[C@@H]1CC[C@@H](CC(=O)O)O[C@H]1c1ccc(C(F)(F)F)cc1 [Example 4, {(2S,5R,6S)-5-[(cyclopentylmethyl)(isobutyl)amino]-6-[4-(trifluoromethyl)phenyl]tetrahydro-2H-pyran-2-yl}acetic acid] |  | IC50 [3]: 608 nM
CCC(C)CN(CC1CCCC1)[C@@H]1CC[C@@H](CC(=O)O)C[C@H]1c1ccc(C(F)(F)F)cc1 (stereo partly drawn) [Example 34, {(1R,3S,4R)-4-[(cyclopentylmethyl)(2-methylbutyl)amino]-3-[4-(trifluoromethyl)phenyl]cyclohexyl}acetic acid, ammonium salt] | 359 | 
CC(C)CN(CC1CCCC1)[C@@H]1CC[C@@H](CC(=O)O)C[C@H]1c1ccc(C(F)(F)F)cc1 [Example 44, {(1R,3S,4R)-4-[(cyclopentylmethyl)(isobutyl)amino]-3-[4-(trifluoromethyl)phenyl]cyclohexyl}acetic acid, trifluoroacetic salt] | 318 | 
O=C(O)C[C@@H]1CC[C@@H](N(Cc2ccccc2)CC2CCCC2)[C@H](c2ccc(C(F)(F)F)cc2)C1 [Example 2, {(1R,3S,4R)-4-[benzyl(cyclopentylmethyl)amino]-3-[4-(trifluoromethyl)phenyl]cyclohexyl}acetic acid] |  | IC50 [3]: 139 nM
CC1CN([C@@H]2CC[C@@H](CC(=O)O)C[C@H]2c2ccc(C(F)(F)F)cc2)CC2(CCCCC2)C1 (stereo partly drawn) [Example 23, {(1R,3S,4R)-4-(4-methyl-2-azaspiro[5.5]undec-2-yl)-3-[4-(trifluoromethyl)phenyl]cyclohexyl} acetic acid] |  | IC50 [2]: 868 nM
CC(C)CCN(CC1CCCCO1)[C@@H]1CC[C@@H](CC(=O)O)C[C@H]1c1ccc(C(F)(F)F)cc1 (stereo partly drawn) [Example 17, {[1R,3S,4R)-4-[(3-methylbutyl) (tetrahydro-2H-pyran-2-ylmethyl)amino]-3-[4-(trifluoromethyl)phenyl]cyclohexyl} acetic acid] |  | IC50 [2]: 1510 nM
CC(C)CCN(CCC(F)(F)F)[C@@H]1CO[C@@H](CC(=O)O)C[C@H]1c1ccc(C(F)(F)F)cc1 [Example 10, 2-{(2R,4S,5S)-5-[(3-methylbutyl)(3,3,3-trifluoropropyl)amino]-4-[4-(trifluoromethyl)phenyl]tetrahydro-2H-pyran-2-yl} acetic acid, hydrochloride salt] |  | IC50 [2]: 4770 nM
CC(C)CCN(Cc1nccs1)[C@@H]1CC[C@@H](CC(=O)O)C[C@H]1c1ccc(C(F)(F)F)cc1 [Example 33, {(1R,3S,4R)-4-[(3-methylbutyl)(1,3-thiazol-2-ylmethyl)amino]-3-[4-(trifluoromethyl)phenyl]cyclohexyl}acetic acid, trifluoroacetate acid] | 3020 | 
O=C(O)C[C@@H]1CC[C@@H](N(CC2CCCC2)CC2CCC2)[C@H](c2ccc(C(F)(F)F)cc2)C1 [Example 50, {(1R,3S,4R)-4-[(cyclobutylmethyl) (cyclopentyl)methyl)amino]-3-[4-(trifluoromethyl)phenyl] cyclohexyl}acetic acid, ammonium salt] | 463 | 

Continued, in another order:

IC50 [1] [nM] | Structure (SMILES) | other results
892 | O=C(O)C[C@@H]1CC[C@@H](N(CC2CCCC2)CC2CCCC2)[C@H](c2ccc(Cl)cc2)O1 [Example 55, [(2S,5R,6S)-5-[bis(cyclopentylmethyl)amino]-6-(4-chlorophenyl)tetrahydro-2H-pyran-2-yl]acetic acid] | 
349 | CC(C)(C)CN(CC1CCCC1)[C@@H]1CC[C@@H](CC(=O)O)C[C@H]1c1ccc(C(F)(F)F)cc1 [Example 36, {(1R,3S,4R)-4-[(cyclopentylmethyl)(2,2-dimethylpropyl)amino]-3-[4-(trifluoromethyl)phenyl]cyclohexyl}acetic acid, ammonium salt] | 
477 | CCC(CC)CN(CC1CCCC1)[C@@H]1CC[C@@H](CC(=O)O)C[C@H]1c1ccc(Cl)cc1 [Example 49, {(1R,3S,4R)-3-(4-chlorophenyl)-4-[(cyclopentylmethyl)(2-ethylbutyl)amino]cyclohexyl} acetic acid, ammonium salt] | 
223 | O=C(O)C[C@@H]1CC[C@@H](N(CC2=Cc3ccccc3OC2)CC2(F)CCCCC2)[C@H](c2ccc(C(F)(F)F)cc2)C1 [Example 62, {(1R,3S,4R)-4-{(2H-chromen-3-ylmethyl)[(1-fluorocyclohexyl)methyl]amino}-3-[4-(trifluoromethyl)phenyl]cyclohexyl}acetic acid, trifluoroacetate salt] | 
5630 | O=C(O)C[C@@H]1CC[C@@H](N(CCC2CCCCO2)CC2CCCC2)[C@H](c2ccc(C(F)(F)F)cc2)C1 (stereo partly drawn) [Example 41, {(1R,3S,4R)-4-{(cyclopentylmethyl)[2-(tetrahydro-2H-pyran-2-yl)ethyl]amino}-3-[4-(trifluoromethyl)phenyl]cyclohexyl}acetic acid, trifluoroacetate salt] | 
2550 | N#Cc1ccc([C@@H]2O[C@H](CC(=O)O)CC[C@H]2N(CC2CCCC2)CC2CCCC2)cc1 [Example 46, [(2S,5R,6S)-5-[bis(cyclopentylmethyl)amino]-6-(4-cyanophenyl)tetrahydro-2H-pyran-2-yl]acetic acid, ammonium salt] | 
